The record followed here is patent US20090023762A1, “Substituted 2-Aminopyrimidine-4-Ones, Their Pharmaceutical Compositions And Their Use In The Treatment And/Or Prevention Of Ab-Related Pathologies” (ASTRAZENECA AB, priority 2005, published 2009).

This experiment concerns the target T1, human β-Secretase (Homo sapiens, UniProt P56817).
T1 construct: The soluble part of the human β-Secretase (AA 1-AA 460) was cloned; Fc domain of IgG1 (C); made in house
The experiment in a line: TR-FRET assay. Type of experiment: biochemical. The settings on record: substrate (Europium)CEVNLDAEFK(Qsy7) 100 nM, enzyme 0.3 nM, pH 4.5. As for the experimental part: The enzyme used in the IGEN Cleavage-, Fluorescent-, TR-FRET- and the BiaCore assay is described as follows:
The soluble part of the human β-Secretase (AA 1-AA 460) was cloned into the ASP2-Fc10-1-IRES-GFP-neoK mammalian expression vector. The gene was fused to the Fc domain of IgG1 (affinity tag) and stably cloned into HEK 293 cells. Purified sBACE-Fc is stored in Tris buffer, pH 9.2 and has a purity of 95%.
Dilute the enzyme (truncated form) to 6 μg/mL (stock 1.3 mg/mL) and the substrate (Europium)CEVNLDAEFK (Qsy7) to 200 nM (stock 60 μM) in reaction buffer (NaAcetate, chaps, triton x-100, EDTA pH4.5). The Biomek FX is used for all liquid handling and the enzyme and substrate solutions are kept on ice until they are placed in Biomek FX. Enzyme (9 μl) is added to the plate then […] in dimethylsulphoxide is added, mixed and pre-incubated for 10 minutes. Substrate (10 μl) is then added, mixed and the reaction proceeds in the dark for 15 minutes at room temperature. The reaction is stopped with the addition of Stop solution (7 μl, NaAcetate pH 9). The fluorescence of the product is measured on a Victor II plate reader with an excitation wavelength of 340 nm and an emission wavelength of 615 nm. The assay is done in a Costar 384 well round bottom, low volume, non-binding surface (Corning #3676). […]
In general terms: Time-resolved FRET reads energy transfer from a long-lived donor to a nearby acceptor.

T1 sequence (P56817 22-460): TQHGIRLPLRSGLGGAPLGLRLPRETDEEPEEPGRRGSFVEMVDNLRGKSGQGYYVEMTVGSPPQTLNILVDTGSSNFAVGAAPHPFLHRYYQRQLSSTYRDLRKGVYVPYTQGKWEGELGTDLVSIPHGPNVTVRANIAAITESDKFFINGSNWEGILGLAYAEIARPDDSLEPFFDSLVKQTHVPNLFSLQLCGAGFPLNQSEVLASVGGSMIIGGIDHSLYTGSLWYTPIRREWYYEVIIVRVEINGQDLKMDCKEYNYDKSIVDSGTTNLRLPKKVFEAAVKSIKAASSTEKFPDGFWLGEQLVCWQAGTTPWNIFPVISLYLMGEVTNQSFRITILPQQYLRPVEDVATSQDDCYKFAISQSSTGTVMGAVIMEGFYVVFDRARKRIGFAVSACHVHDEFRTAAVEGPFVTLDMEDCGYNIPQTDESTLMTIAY

As for `COc1cc(OS(C)(=O)=O)cc(-c2cccc(C3(C)CC(=O)N(C)C(N)=N3)c2)c1` (stereo not shown) [Example 9, 3′-(2-Amino-1,4-dimethyl-6-oxo-1,4,5,6-tetrahydropyrimidin-4-yl)-5-methoxybiphenyl-3-yl methanesulfonate], the IC50 (as a rule, the concentration that gives 50% inhibition) stood at 703 nM.
